Data: the kinase profiling compilation of Christmann-Franck et al. (2016)

How the values were obtained:
Test in all cases: KINOMEscan competition binding
Conditions in all cases: compound 10.0 µM
BMPR1B (human) = BMPR1B (human) (UniProt O00238)
BMPR2 (human) = BMPR2 (human) (UniProt Q13873)
CAMK2G (human) = CAMK2G (human) (UniProt Q13555)
CDKL5 (human) = CDKL5 (human) (UniProt O76039)
CSF1R (human) = CSF1R (human) (UniProt P07333)
CSNK1G2 (human) = CSNK1G2 (human) (UniProt P78368)
DCLK2 (human) = DCLK2 (human) (UniProt Q8N568)
FLT4 (human) = FLT4 (human) (UniProt P35916)
GRK1 (human) = GRK1 (human) (UniProt Q15835)
ICK (human) = ICK (human) (UniProt Q9UPZ9)
INSR (human) = INSR (human) (UniProt P06213)
[1] = tested on: KIT (human), P10721 [L576P]
LRRK2 (human) = LRRK2 (human) (UniProt Q5S007)
LYN (human) = LYN (human) (UniProt P07948)
MAP3K13 (human) = MAP3K13 (human) (UniProt O43283)
MAP3K5 (human) = MAP3K5 (human) (UniProt Q99683)
MAPK14 (human) = MAPK14 (human) (UniProt Q16539)
MAPK6 (human) = MAPK6 (human) (UniProt Q16659)
MLTK (human) = MLTK (human) (UniProt Q9NYL2)
NIM1 (human) = NIM1 (human) (UniProt Q8IY84)
NLK (human) = NLK (human) (UniProt Q9UBE8)
PAK1 (human) = PAK1 (human) (UniProt Q13153)
PAK2 (human) = PAK2 (human) (UniProt Q13177)
PAK4 (human) = PAK4 (human) (UniProt O96013)
PDPK1 (human) = PDPK1 (human) (UniProt O15530)
PIM2 (human) = PIM2 (human) (UniProt Q9P1W9)
PIM3 (human) = PIM3 (human) (UniProt Q86V86)
PKMYT1 (human) = PKMYT1 (human) (UniProt Q99640)
PRKAA2 (human) = PRKAA2 (human) (UniProt P54646)
PRKACA (human) = PRKACA (human) (UniProt P17612)
PTK2 (human) = PTK2 (human) (UniProt Q05397)
RPS6KA2 KD2 (human) = RPS6KA2 KD2 (human) (UniProt Q15349)
RPS6KA6 KD1 (human) = RPS6KA6 KD1 (human) (UniProt Q9UK32)
RPS6KB1 (human) = RPS6KB1 (human) (UniProt P23443)
SIK2 (human) = SIK2 (human) (UniProt Q9H0K1)
SRPK2 (human) = SRPK2 (human) (UniProt P78362)
STK32C (human) = STK32C (human) (UniProt Q86UX6)
TEK (human) = TEK (human) (UniProt Q02763)
TGFBR2 (human) = TGFBR2 (human) (UniProt P37173)
ULK1 (human) = ULK1 (human) (UniProt O75385)
WEE1 (human) = WEE1 (human) (UniProt P30291)

CSF1R (human), sequence (P07333 whole entry, looked up): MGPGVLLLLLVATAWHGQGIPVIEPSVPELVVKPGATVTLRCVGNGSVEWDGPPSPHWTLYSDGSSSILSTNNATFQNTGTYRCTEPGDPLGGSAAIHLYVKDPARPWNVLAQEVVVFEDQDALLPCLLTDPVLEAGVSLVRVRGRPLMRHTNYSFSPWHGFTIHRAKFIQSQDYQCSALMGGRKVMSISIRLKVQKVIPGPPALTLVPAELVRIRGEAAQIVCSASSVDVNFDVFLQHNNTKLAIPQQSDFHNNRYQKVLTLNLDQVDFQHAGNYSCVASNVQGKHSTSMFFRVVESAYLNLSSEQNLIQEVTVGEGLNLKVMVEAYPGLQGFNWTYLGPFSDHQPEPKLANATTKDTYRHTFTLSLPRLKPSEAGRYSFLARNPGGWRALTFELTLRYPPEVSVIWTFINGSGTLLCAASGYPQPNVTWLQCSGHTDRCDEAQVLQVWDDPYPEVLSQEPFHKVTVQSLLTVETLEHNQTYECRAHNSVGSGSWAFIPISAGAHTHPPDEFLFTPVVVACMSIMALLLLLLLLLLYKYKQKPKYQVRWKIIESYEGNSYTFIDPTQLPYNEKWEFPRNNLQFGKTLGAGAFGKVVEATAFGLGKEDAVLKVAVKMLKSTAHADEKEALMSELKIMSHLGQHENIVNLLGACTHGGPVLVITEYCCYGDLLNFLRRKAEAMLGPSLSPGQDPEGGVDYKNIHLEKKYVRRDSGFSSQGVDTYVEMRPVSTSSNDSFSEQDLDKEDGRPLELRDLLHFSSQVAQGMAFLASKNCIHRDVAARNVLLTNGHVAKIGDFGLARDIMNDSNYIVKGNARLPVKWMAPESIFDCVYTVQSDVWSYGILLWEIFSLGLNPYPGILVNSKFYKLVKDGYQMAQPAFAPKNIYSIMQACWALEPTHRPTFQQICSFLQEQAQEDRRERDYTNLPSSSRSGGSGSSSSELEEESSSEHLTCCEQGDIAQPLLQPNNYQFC
PKMYT1 (human), sequence (Q99640 whole entry, looked up): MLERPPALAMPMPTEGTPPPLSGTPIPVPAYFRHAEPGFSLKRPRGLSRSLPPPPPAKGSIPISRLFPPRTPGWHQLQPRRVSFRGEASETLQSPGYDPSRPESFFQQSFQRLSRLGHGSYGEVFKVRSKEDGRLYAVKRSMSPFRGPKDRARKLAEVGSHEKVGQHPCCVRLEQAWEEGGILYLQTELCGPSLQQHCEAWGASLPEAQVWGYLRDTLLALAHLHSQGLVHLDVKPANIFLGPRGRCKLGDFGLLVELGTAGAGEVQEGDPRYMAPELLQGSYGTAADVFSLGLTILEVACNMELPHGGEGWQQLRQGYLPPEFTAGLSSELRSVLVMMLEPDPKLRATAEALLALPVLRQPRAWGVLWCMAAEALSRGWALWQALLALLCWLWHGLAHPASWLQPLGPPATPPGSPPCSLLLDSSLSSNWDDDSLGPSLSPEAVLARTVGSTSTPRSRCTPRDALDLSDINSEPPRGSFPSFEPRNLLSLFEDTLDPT
NLK (human), sequence (Q9UBE8 whole entry, looked up): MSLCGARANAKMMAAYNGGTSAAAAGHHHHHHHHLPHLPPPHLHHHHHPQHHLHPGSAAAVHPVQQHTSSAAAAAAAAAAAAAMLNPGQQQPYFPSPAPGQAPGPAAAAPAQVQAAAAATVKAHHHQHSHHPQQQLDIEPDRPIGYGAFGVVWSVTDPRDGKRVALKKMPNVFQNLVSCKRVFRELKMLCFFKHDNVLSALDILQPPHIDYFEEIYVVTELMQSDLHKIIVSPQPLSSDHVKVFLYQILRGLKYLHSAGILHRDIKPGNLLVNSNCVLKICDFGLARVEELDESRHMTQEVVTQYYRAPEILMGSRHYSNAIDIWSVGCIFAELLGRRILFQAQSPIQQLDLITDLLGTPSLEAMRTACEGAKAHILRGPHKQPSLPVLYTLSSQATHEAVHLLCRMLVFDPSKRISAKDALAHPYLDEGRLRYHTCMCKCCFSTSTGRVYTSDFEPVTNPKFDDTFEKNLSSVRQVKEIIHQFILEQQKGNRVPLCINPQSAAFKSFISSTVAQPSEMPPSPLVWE
NIM1 (human), sequence (Q8IY84 whole entry, looked up): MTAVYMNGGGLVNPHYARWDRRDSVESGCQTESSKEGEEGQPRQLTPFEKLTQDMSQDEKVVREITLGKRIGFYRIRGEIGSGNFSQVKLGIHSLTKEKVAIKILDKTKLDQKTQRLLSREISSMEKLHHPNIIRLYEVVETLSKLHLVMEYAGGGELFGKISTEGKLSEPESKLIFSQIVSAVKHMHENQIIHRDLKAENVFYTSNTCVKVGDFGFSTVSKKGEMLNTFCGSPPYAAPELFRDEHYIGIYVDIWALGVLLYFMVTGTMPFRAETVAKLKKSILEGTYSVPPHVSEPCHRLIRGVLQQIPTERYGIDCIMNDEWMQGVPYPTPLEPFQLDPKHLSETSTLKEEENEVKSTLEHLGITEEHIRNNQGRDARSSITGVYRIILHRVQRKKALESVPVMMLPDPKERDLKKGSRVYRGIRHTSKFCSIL
MAP3K5 (human), sequence (Q99683 whole entry, looked up): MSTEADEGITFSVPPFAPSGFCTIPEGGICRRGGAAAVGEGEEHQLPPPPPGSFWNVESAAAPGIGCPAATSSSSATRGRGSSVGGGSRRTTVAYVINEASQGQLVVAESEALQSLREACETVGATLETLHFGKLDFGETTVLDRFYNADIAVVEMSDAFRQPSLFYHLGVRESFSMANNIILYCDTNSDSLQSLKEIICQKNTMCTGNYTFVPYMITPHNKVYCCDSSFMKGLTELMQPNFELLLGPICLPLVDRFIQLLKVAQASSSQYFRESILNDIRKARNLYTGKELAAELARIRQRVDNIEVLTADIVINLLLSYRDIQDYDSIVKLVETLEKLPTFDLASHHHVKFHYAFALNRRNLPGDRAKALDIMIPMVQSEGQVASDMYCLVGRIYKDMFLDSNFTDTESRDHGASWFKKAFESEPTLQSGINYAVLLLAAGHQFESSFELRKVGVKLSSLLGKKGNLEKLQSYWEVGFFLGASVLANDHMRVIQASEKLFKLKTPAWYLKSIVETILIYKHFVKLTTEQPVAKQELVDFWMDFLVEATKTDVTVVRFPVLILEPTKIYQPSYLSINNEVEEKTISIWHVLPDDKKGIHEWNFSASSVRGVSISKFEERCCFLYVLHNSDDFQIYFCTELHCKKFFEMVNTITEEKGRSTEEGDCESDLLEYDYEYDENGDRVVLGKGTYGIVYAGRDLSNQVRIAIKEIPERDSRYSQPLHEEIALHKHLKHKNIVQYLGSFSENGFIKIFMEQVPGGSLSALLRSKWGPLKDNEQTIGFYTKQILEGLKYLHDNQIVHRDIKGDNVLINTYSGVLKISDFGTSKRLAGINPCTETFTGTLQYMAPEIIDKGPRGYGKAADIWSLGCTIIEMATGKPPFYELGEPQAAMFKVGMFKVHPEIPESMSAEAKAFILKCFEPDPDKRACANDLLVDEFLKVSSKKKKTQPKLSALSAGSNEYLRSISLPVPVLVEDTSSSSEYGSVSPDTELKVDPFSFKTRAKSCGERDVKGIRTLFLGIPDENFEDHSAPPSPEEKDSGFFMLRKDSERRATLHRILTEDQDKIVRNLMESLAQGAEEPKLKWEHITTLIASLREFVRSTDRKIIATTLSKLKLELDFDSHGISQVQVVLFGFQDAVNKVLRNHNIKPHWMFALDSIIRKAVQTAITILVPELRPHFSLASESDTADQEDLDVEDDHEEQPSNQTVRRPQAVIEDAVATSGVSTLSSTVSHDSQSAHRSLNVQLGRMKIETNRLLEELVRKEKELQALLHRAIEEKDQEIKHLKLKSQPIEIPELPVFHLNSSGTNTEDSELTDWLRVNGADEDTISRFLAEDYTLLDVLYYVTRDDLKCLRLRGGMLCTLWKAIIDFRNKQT
BMPR1B (human), sequence (O00238 whole entry, looked up): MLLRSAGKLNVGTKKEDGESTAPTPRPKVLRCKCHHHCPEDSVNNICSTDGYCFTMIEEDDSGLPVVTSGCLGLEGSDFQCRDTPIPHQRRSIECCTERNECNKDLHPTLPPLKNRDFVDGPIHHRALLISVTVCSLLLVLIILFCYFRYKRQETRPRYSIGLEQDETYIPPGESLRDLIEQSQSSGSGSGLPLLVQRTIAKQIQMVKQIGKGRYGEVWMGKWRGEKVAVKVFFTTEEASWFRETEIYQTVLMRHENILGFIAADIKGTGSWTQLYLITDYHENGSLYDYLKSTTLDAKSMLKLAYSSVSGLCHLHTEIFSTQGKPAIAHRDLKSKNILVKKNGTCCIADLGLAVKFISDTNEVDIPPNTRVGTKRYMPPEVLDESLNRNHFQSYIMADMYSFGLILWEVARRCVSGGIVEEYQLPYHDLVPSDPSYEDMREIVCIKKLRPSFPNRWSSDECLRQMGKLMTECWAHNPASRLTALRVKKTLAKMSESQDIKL
MAPK14 (human), sequence (Q16539 whole entry, looked up): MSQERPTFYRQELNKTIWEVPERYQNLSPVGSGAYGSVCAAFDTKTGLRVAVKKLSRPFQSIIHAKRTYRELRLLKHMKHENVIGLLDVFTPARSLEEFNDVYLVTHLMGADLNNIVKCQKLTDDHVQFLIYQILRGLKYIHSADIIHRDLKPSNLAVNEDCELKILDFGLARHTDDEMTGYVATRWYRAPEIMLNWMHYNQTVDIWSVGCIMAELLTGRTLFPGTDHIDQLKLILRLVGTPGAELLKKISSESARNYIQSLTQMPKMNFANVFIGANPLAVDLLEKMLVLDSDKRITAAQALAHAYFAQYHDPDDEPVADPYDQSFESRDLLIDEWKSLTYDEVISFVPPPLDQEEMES

Structure (SMILES): COc1ccc(-c2ccc3c(N4CCOCC4)nc(N4C[C@@H](C)O[C@@H](C)C4)nc3n2)cc1CO
- kinase still bound, per cent of control (BMPR1B (human)): 99%
- kinase still bound, per cent of control (BMPR2 (human)): 79%
- kinase still bound, per cent of control (CAMK2G (human)): 87%
- per cent of control (CDKL5 (human)): 77%
- kinase still bound, per cent of control (CSF1R (human)): 90%
- kinase still bound, per cent of control (CSNK1G2 (human)): 100%
- kinase still bound, per cent of control (DCLK2 (human)): 100%
- kinase still bound, per cent of control (FLT4 (human)): 100%
- kinase still bound, per cent of control (GRK1 (human)): 98%
- kinase still bound, per cent of control (ICK (human)): 100%
- kinase still bound, per cent of control (INSR (human)): 97%
- kinase still bound, per cent of control [1]: 93%
- kinase still bound, per cent of control (LRRK2 (human)): 100%
- kinase still bound, per cent of control (LYN (human)): 100%
- kinase still bound, per cent of control (MAP3K13 (human)): 100%
- kinase still bound, per cent of control (MAP3K5 (human)): 97%
- kinase still bound, per cent of control (MAPK14 (human)): 99%
- kinase still bound, per cent of control (MAPK6 (human)): 84%
- kinase still bound, per cent of control (MLTK (human)): 100%
- kinase still bound, per cent of control (NIM1 (human)): 97%
- kinase still bound, per cent of control (NLK (human)): 96%
- kinase still bound, per cent of control (PAK1 (human)): 84%
- kinase still bound, per cent of control (PAK2 (human)): 91%
- kinase still bound, per cent of control (PAK4 (human)): 86%
- kinase still bound, per cent of control (PDPK1 (human)): 100%
- kinase still bound, per cent of control (PIM2 (human)): 100%
- kinase still bound, per cent of control (PIM3 (human)): 100%
- kinase still bound, per cent of control (PKMYT1 (human)): 84%
- kinase still bound, per cent of control (PRKAA2 (human)): 100%
- per cent of control (PRKACA (human)): 100%
- kinase still bound, per cent of control (PTK2 (human)): 95%
- kinase still bound, per cent of control (RPS6KA2 KD2 (human)): 94%
- kinase still bound, per cent of control (RPS6KA6 KD1 (human)): 76%
- kinase still bound, per cent of control (RPS6KB1 (human)): 100%
- kinase still bound, per cent of control (SIK2 (human)): 91%
- kinase still bound, per cent of control (SRPK2 (human)): 100%
- kinase still bound, per cent of control (STK32C (human)): 87%
- kinase still bound, per cent of control (TEK (human)): 71%
- kinase still bound, per cent of control (TGFBR2 (human)): 92%
- kinase still bound, per cent of control (ULK1 (human)): 79%
- kinase still bound, per cent of control (WEE1 (human)): 98%
